We go through one sequence from article PMC314469, “Protein Interaction Networks by Proteome Peptide Scanning” (PLoS Biology, 2004).

The subject of the test is Myo5 SH3 domain. Nature of the test: SPOT analysis of cellulose-bound peptides (WISE), Myo5 SH3 domain (Dataset S4). The class given is binding, Saccharomyces cerevisiae. The note with it: SPOT analysis of cellulose-bound peptides probed with Myo5 SH3 domain; normalized value.

On to SLTSLPPPPPPQFS, for which the “The normalized value in BLU units (SPOT analysis, Myo5 SH3)” value is 7261.1 BLU.
